As a reminder, the IC50 is the concentration at which inhibition is half-maximal. Lower therefore signals greater potency. For orientation: melting point means the temperature, or range, at which the solid turns liquid.

Each structure is given as a SMILES string.

Drawing on patent US9115143B2, “Substituted indole derivatives as gamma secretase modulators” (Janssen Pharmaceuticals, Inc., priority 2011, dated 2015), this text covers IC50, response vs control in vivo and melting point for five compounds.

The test system of data set [1] is Aβ42. The experiment in a line: Screening for γ-secretase-modulating activity: Aβ42 in supernatant of SKNBE2 cells carrying hAPP 695 wild type (Alphalisa). The settings on record: SKNBE2 human neuroblastoma cells carrying hAPP 695 wild type; overnight incubation; Alphalisa on supernatant. The data set is classed as cell-based, human. The gist of the method:
(§1)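 Secreted Aβ42 (C-terminal/N-terminal antibody pair) and Aβtotal (N-terminal/mid-region pair) were quantified by AlphaLISA after overnight compound exposure of wild-type hAPP 695 SKNBE2 cells at 37 °C. Values expressed relative to compound-free maximum, with IC50 from nonlinear 4-parameter regression.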
(In general: Alpha assays give light when donor and acceptor beads are brought close together.)

Another data set deals with Aβtotal. Put plainly: Screening for γ-secretase-modulating activity: Aβtotal in supernatant of SKNBE2 cells carrying hAPP 695 wild type (Alphalisa). The data set is classed as cell-based, human. The settings on record: SKNBE2 human neuroblastoma cells carrying hAPP 695 wild type; overnight incubation; Alphalisa on supernatant. The gist of the method: as §1
The subject of data set [2] is Aβ42. The experiment in a line: In vivo efficacy B-1b: brain soluble Aβ42, MSD electrochemiluminescence multiplex. The settings on record: mouse brain soluble fraction, dose 30 mg/kg oral dosing, 4 h after dose; untreated control set at 100; read-out: Aβ42 (% vs Ctrl)_Mean. An excerpt: (§2) To determine whether acute administration of an Aβ42 lowering agent would reduce Aβ42 levels in vivo, non-transgenic rodents, e.g. mice or rats were used. Animals treated with the Aβ42 lowering agent were examined and compared to those untreated or treated with vehicle and brain levels of soluble Aβ42, Aβ40, Aβ38, and Aβ37 were quantitated by Meso Scale Discovery's (MSD) electrochemiluminescence detection technology. Treatment periods varied from hours (h) to days and were adjusted based on the results of the Aβ42 lowering once a time course of onset of effect could be established.
(§3) A typical protocol for measuring Aβ42 lowering in vivo is shown but it is only one of many variations that could be used to optimize the levels of detectable Aβ. For example, Aβ42 lowering compounds were formulated in 20% of Captisol® (a sulfobutyl ether of β-cyclodextrin) in water or 20% hydroxypropyl β cyclodextrin. The Aβ42 lowering agents were administered as a single oral dose or by any acceptable route of administration to overnight fasted animals. After 4 h, the animals were sacrificed and Aβ42 levels were analysed.
(§4) Blood was collected by decapitation and exsanguinations in EDTA-treated collection tubes. Blood was centrifuged at 1900 g for 10 minutes (min) at 4° C. and the plasma recovered and flash frozen for later analysis. The brain was removed from the cranium and hindbrain. The cerebellum was removed and the left and right hemisphere were separated. The left hemisphere was stored at −18° C. for quantitative analysis of test compound levels. The right hemisphere was rinsed with phosphate-buffered saline (PBS) buffer and immediately frozen on dry ice and stored at −80° C. until homogenization for biochemical assays.
(§5) Mouse brains from non-transgenic animals were resuspended in 8 volumes of 0.4% DEA (diethylamine)/50 mM NaCl containing protease inhibitors (Roche-11873580001 or 04693159001) per gram of tissue, e.g. for 0.158 g brain, add 1.264 ml of 0.4% DEA. All samples were homogenized in the FastPrep-24 system (MP Biomedicals) using lysing matrix D (MPBio #6913-100) at 6 m/s for 20 seconds. Homogenates were centrifuged at 20800×g for 5 min and supernatants collected. Supernatants were centrifuged at 221.300×g for 50 min. The resulting high speed supernatants were then transferred to fresh eppendorf tubes. Nine parts of supernatant were neutralized with 1 part 0.5 M Tris-HCl pH 6.8 and used to quantify Aβ.
(§6) To quantify the amount of Aβ42, Aβ40, Aβ38, and Aβ37 in the soluble fraction of the brain homogenates, simultaneous specific detection of Aβ42, Aβ40, Aβ38, and Aβ37 was performed using MSD's electro-chemiluminescence multiplex detection technology. In this assay purified monoclonal antibodies specific for Abeta37 (JRD/Aβ37/3), Abeta38 (J&JPRD/Aβ38/5), Abeta40 (JRF/cAβ40/28), and Abeta42 (JRF/cAβ42/26) were coated on MSD 4-plex plates. Briefly, the standards (a dilution of synthetic Aβ42, Aβ40, Aβ38, and Aβ37) were prepared in 1.5 ml Eppendorf tube in Ultraculture, with final concentrations ranging from 10000 to 0.3 pg/m. The samples and standards were co-incubated with Sulfo-tag labelled JRF/rAβ/2 antibody to the N-terminus of Aβ as detector antibody. 50 μl of conjugate/sample or conjugate/standards mixtures were then added to the antibody-coated plate. The plate was allowed to incubate overnight at 4° C. in order to allow formation of the antibody-amyloid complex. Following this incubation and subsequent wash steps the assay was finished by adding read buffer according to the manufacturer's instructions (Meso Scale Discovery, Gaitherburg, Md.).
(§7) The SULFO-TAG emits light upon electrochemical stimulation initiated at the electrode. MSD Sector instrument SI6000 was used for signal read-out.
In this model a Aβ42 lowering compared to untreated animals would be advantageous, in particular a Aβ42 lowering with at least 10%, more in particular a Aβ42 lowering with at least 20%. […]

Another data set concerns Aβ40. The experiment in a line: In vivo efficacy B-1b/B-2b: brain soluble Aβ40, MSD electrochemiluminescence multiplex. The settings on record: mouse brain soluble fraction, dose 30 mg/kg oral dosing, 4 h after dose; untreated control set at 100; read-out: Aβ40 (% vs Ctrl)_Mean.
Text: as §2, §3, §4, §5, §6, §7
The results are shown in Table 5 (dose 30 mg/kg oral dosing) (value for untreated animals as control (Ctrl) was set at 100): […]

The test system of the next data set is Aβ38. The experiment in a line: In vivo efficacy B-2b: brain soluble Aβ38, MSD electrochemiluminescence multiplex. Conditions: mouse brain soluble fraction, dose 30 mg/kg oral dosing, 4 h after dose; untreated control set at 100; read-out: Aβ38 (% vs Ctrl)_Mean.
Text: To determine whether acute administration of an Aβ38 increasing agents would increase Aβ38 levels in vivo, non-transgenic rodents, e.g. mice or rats were used. Animals treated with the Aβ38 increasing agents were examined and compared to those untreated or treated with vehicle and brain levels of soluble Aβ42, Aβ40, Aβ38, and Aβ37 were quantitated by MSD electrochemiluminescence detection technology. Treatment periods varied from hours (h) to days and were adjusted based on the results of the Aβ38 increase once a time course of onset of effect could be established.
A typical protocol for measuring Aβ38 increase in vivo is shown but it is only one of many variations that could be used to optimize the levels of detectable Aβ. For example, Aβ38 increasing agents were formulated in 20% of Captisol® (a sulfobutyl ether of β-cyclodextrin) in water or 20% hydroxypropyl β cyclodextrin. The Aβ38 increasing agents were administered as a single oral dose or by any acceptable route of administration to overnight fasted animals. After 4 h, the animals were sacrificed and Aβ38 levels were analysed.
as §4, §5, §6, §7
In this model a Aβ38 increase compared to untreated animals would be advantageous, in particular a Aβ38 increase with at least 10%, more in particular a Aβ38 increase with at least 20%. […]

The compound `COc1c(C#N)ccc2[nH]c(-c3nc4n(n3)CCOC4c3cccc(F)c3C)cc12` (centres unmarked) [Compound 147, 2-[8-(3-fluoro-2-methylphenyl)-5,6-dihydro-8H-[1,2,4]triazolo[5,1-c][1,4]oxazin-2-yl]-4-methoxy-1H-indole-5-carbonitrile] gave a melting point of 240.4 °C. The IC50 in the data set on Aβ42 [1] turned out to be 31 nM. For the same compound, in the data set on Aβtotal, the half-maximal inhibitory concentration (IC50) was more than 10000 nM. In addition, in the data set with Aβ42 [2], the response vs control in vivo at 30 mg/kg came out at 67%. The response vs control in vivo at 30 mg/kg with Aβ40 was found to be 79%. In addition, the response vs control in vivo at 30 mg/kg in the data set on Aβ38 worked out at 160%.

In turn, `COc1c(C#N)ccc2[nH]c(-c3cn4c(n3)C(c3cc(F)ccc3C)OCC4)cc12` (centres unmarked) [Compound 158, 2-[8-(5-fluoro-2-methylphenyl)-5,6-dihydro-8H-imidazo[2,1-c][1,4]oxazin-2-yl]-4-methoxy-1H-indole-5-carbonitrile] displayed a melting point of 280.1 °C. For the same compound, 23 nM corresponded to half-maximal inhibition in the data set with Aβ42 [1] (IC50). For the same compound, the IC50 with Aβtotal is more than 10000 nM. For the same compound, the response vs control in vivo at 30 mg/kg in the data set on Aβ42 [2] turned out to be 66%. For the same compound, in the data set with Aβ40, the response vs control in vivo at 30 mg/kg came out at 87%. In addition, the response vs control in vivo at 30 mg/kg with Aβ38 amounted to 140%.

`COc1c(C#N)ccc2[nH]c(-c3cn4c(n3)C(c3ccccc3Cl)OCC4)cc12` (centres unmarked) [Compound 50, 2-[8-(2-chlorophenyl)-5,6-dihydro-8H-imidazo[2,1-c][1,4]oxazin-2-yl]-4-methoxy-1H-indole-5-carbonitrile] registered a melting point of 254.3 °C. The same compound yielded an IC50 with Aβ42 [1] of 31 nM. The IC50 with Aβtotal was more than 10000 nM. Moreover, the response vs control in vivo at 30 mg/kg in the data set with Aβ42 [2] stood at 43%. Besides, in the data set on Aβ40, the response vs control in vivo at 30 mg/kg stood at 46%. In addition, the response vs control in vivo at 30 mg/kg with Aβ38 amounted to 141%.

On to `COc1c(C#N)ccc2[nH]c(-c3cn4c(n3)C(c3c(C)cccc3F)OCC4)cc12` (centres unmarked) [Compound 138, 2-[8-(2-fluoro-6-methylphenyl)-5,6-dihydro-8H-imidazo[2,1-c][1,4]oxazin-2-yl]-4-methoxy-1H-indole-5-carbonitrile], for which the melting point was determined as 297 °C. Moreover, half-maximal inhibition with Aβ42 [1] (IC50) was put at 19 nM. The same compound registered an IC50 in the data set on Aβtotal of more than 10000 nM. For the same compound, in the data set on Aβ42 [2], the response vs control in vivo at 30 mg/kg was 75%. Moreover, the response vs control in vivo at 30 mg/kg in the data set on Aβ40 is 90%. The response vs control in vivo at 30 mg/kg in the data set on Aβ38 is 117%.

On to `COc1c(C#N)ccc2[nH]c(-c3nc4n(n3)CCCOC4c3ccc(F)cc3C)cc12` (centres unmarked) [Compound 53, 2-[9-(4-fluoro-2-methylphenyl)-6,7-dihydro-5H,9H-[1,2,4]triazolo[5,1-c][1,4]oxazepin-2-yl]-4-methoxy-1H-indole-5-carbonitrile], for which the 50% inhibitory concentration (IC50) in the data set with Aβ42 [1] was 35 nM; with Aβtotal, more than 10000 nM. In addition, the response vs control in vivo at 30 mg/kg in the data set on Aβ42 [2] came to 74%; in the data set with Aβ40, 79%; in the data set on Aβ38, 78%.
